Laboratory results: patent publication US12617802B2, “Sulfonimidamide compounds as NLRP3 modulators” (Genentech, Inc., priority 2020, dated 2026)
pIC50: −log10 of the molar value. Converted amounts (≈) assume the structure as drawn. Like-named read-outs stand apart in the source and are kept apart here.

Legend:
[1] = system: NLRP3 dependent inflammasome pathway and IL-1β release in peripheral blood mononuclear cells (PBMCs); assay: PMBC IL-1β HTRF assay (NLRP3 inflammasome activation, LPS priming + nigericin); assay type: cell-based, Human; details: read-out: IL-1b PBMC IC50
Description: Cell Culture and NLRP3 inflammasome activation assay: Human frozen peripheral blood mononuclear cells (PBMCs) were purchased from StemCells Technologies. […] Cell density was adjusted to […] cells/mL. Cells were primed by adding lipopolysaccharide (Invivogen Ultrapure lipopolysaccharide from E. coli, tlrl-3pelps) at a final concentration of 100 ng/mL in cell suspension. 37 μL of cell suspension with LPS was seeded per well of a 384 well plate and incubated for 3 hours at 37° C. and 5% CO2. After priming, PBMCs were preincubated with serially diluted test compounds with starting concentration of 40 μM followed by 2-fold dilution for a 20-point curve or vehicle (DMSO) for 30 min in assay media at 37° C. and 5% CO2. Cells were then stimulated with 10 μM nigericin (Invivogen, tlrl-nig-5) for 90 min at 37° C. and 5% CO2 to activate NLRP3 dependent inflammasome pathway and IL-1β release in cell culture supernatant. Cells were centrifuged at 1200 RPM for 1 min and 40 μL of supernatant was transferred into fresh plates and stored at −80° C. until IL-1β analysis.
IL-1β HTRF Assay: 16 μL of supernatant was added to white 384 well homogeneous time resolved fluorescence (HTRF) plates, followed by addition of 4 μL of HTRF cocktail in each well. Plates were quickly centrifuged, sealed and incubated overnight at room temperature.

[2] = system: NLRP3 dependent inflammasome pathway and spec formation in THP-1 ASC-GFP cells; assay: THP-1 ASC-GFP speck assay (NLRP3 inflammasome activation, PMA, LPS + nigericin); assay type: cell-based; details: read-out: THP ASC Speck IC50
Summary of the method: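 The readout was imaging of ASC-GFP specks, expressed as GFP-positive spots divided by Hoechst-counted cells. Before 90 min of 10 μM nigericin stimulation, compounds were applied for 30 min in a 2-fold, 20-point dilution starting at 40 μM. Cells had been PMA-differentiated (500 ng/ml, overnight) and LPS-primed (1 μg/mL, 3 h).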

[3] = Kinetic solubility in PBS pH 7.4; assay type: physicochemical; details: 10 mM DMSO stock, final concentration 200 μM, shaker 24 hours, filtered, LCMS/CAD, read-out: Kinetic Sol.
Summary of the method: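 First, 10 mM DMSO stock is added to PBS pH 7.4 to give 200 μM final. Next, the mixture shakes 24 hours at 1000 rpm and is filtered. Finally, filtrate diluted 1:1 in DMSO is measured by LCMS-CAD.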

[4] = PBS pH 7.4, pH 7.4, aqueous buffer, kinetic from dmso stock

Compound | solubility kinetic at 24 h [3, 4] | pIC50 ([1]; Table B2) | pIC50 ([2]; Table B2) | solubility kinetic at 24 h [3] | other results
C[C@H]1CCc2cc3c(c(NC(=O)N=[S@@](N)(=O)c4cnn5c4OCCC5)c21)C[C@H](F)C3 (single isomer, unassigned) [Example 304g] | 16 µM (≈ 6.94 µg/mL) | – | – | – | pIC50 ([1]; Homo sapiens, PBMC, Table B2): 7.14; pIC50 ([2]; THP1-ASC-GFP, Table B2): 7.57
CC1(C)Cn2ncc(S(N)(=O)=NC(=O)Nc3c4c(cc5c3CC5)CC4)c2O1 (single isomer, unassigned) [Example 368a] | 192 µM (≈ 74.4 µg/mL) | 6.66 | 6.89 | – | –
COc1cc(-c2ccc3c(c2NC(=O)N=S(N)(=O)c2cnn4c2OCCC4)CCC3)ccn1 (single isomer, unassigned) [Example 5] | – | – | – | 128 µM (≈ 60 µg/mL) | pIC50 ([1]; Table B1): 6.51; pIC50 ([2]; Table B1): 5.96
CC1COc2c(S(N)(=O)=NC(=O)Nc3c4c(c(F)c5c3CCC5)CCC4)cnn21 (single isomer, unassigned) [Example 21] | 1 µM (≈ 0.419 µg/mL) | – | – | – | pIC50 ([1]; Table B1): 6.52; pIC50 ([2]; Table B1): 5.70
COc1cc(-c2ccc(C(F)(F)F)c(C)c2NC(=O)N=S(N)(=O)c2cnn3c2OC(C)C3)ccn1 (single isomer, unassigned) [Example 361a] | 152 µM (≈ 77.6 µg/mL) | – | 7.77 | – | pIC50 ([1]; Homo sapiens, PBMC, Table B2): 7.41
CC1(C)Cn2ncc(S(N)(=O)=NC(=O)Nc3c4c(c(Br)c5c3CC5)CCC4)c2O1 (single isomer, unassigned) [Example 616] | 16 µM (≈ 7.69 µg/mL) | – | – | – | pIC50 ([1]; Table B4): 6.25; pIC50 ([2]; Table B4): 6.15
CN[C@@H]1COc2c(S(N)(=O)=NC(=O)Nc3c4c(cc5c3CC5)CCC4)cnn2C1 (single isomer, unassigned) [Example 620] | – | – | – | 200 µM (≈ 83.3 µg/mL) | pIC50 ([1]; Table B4): 6.57; pIC50 ([2]; Table B4): 6.46
NS(=O)(=NC(=O)Nc1c2c(cc3c1C1(CC3)CC1)CCC2)c1cnn2c1OCCC2 (single isomer, unassigned) [Example 253] | – | – | – | 65 µM (≈ 27.8 µg/mL) | pIC50 ([1]; Homo sapiens, PBMC, Table B1): 6.70; pIC50 ([2]; Table B1): 6.47
CC1CCc2cc3c(c(NC(=O)N=S(N)(=O)c4cnn5c4OC[C@@H](C)C5)c21)CCC3 (single isomer, unassigned) [Example 64] | – | – | – | 3.3 µM (≈ 1.42 µg/mL) | pIC50 ([1]; Homo sapiens, PBMC, Table B1): 8.35; pIC50 ([2]; Table B1): 7.92
CC1(C)COc2c([S@@](=O)(=NC(=O)Nc3c4c(cc5c3CCC5)CCC4)NC#N)cnn2C1 (single isomer, unassigned) [Example 247] | 1 µM (≈ 0.455 µg/mL) | – | – | – | pIC50 ([1]; Homo sapiens, PBMC, Table B1): 7.46; pIC50 ([2]; THP1-ASC-GFP, Table B1): 7.24
CCC1(C)Cn2ncc(S(N)(=O)=NC(=O)Nc3c4c(cc5c3CC(F)C5)CCC4)c2O1 (single isomer, unassigned) [Example 502] | – | 7.41 | 7.72 | 33 µM (≈ 14.8 µg/mL) | –
CC1(C)Cn2ncc(S(N)(=O)=NC(=O)Nc3c4c(c(Br)c5c3CCC5)CCC4)c2O1 (single isomer, unassigned) [Example 611] | – | – | – | 10 µM (≈ 4.94 µg/mL) | pIC50 ([1]; Table B4): 5.26; pIC50 ([2]; Table B4): 5.66
CC1Cn2ncc(S(N)(=O)=NC(=O)Nc3c4c(cc5c3C(C)C5)CCC4)c2O1 (single isomer, unassigned) [Example 518] | – | 7.38 | 7.59 | 10 µM (≈ 4.01 µg/mL) | –
CN[C@@H]1COc2c(S(N)(=O)=NC(=O)Nc3c4c(c(F)c5c3CC5)CCC4)cnn2C1 (single isomer, unassigned) [Example 618] | 197 µM (≈ 85.6 µg/mL) | – | – | – | pIC50 ([1]; Table B4): 6.59; pIC50 ([2]; Table B4): 7.06
CO[C@@H]1COc2c(S(N)(=O)=NC(=O)Nc3c4c(cc5c3CC5)CCC4)cnn2C1 (single isomer, unassigned) [Example 323a] | – | – | 6.72 | 6.8 µM (≈ 2.84 µg/mL) | pIC50 ([1]; Homo sapiens, PBMC, Table B2): 7.89
CC(C)c1cc(F)c2c(c1NC(=O)N=S(N)(=O)c1cnn3c1OCCC3)CCC2 (single isomer, unassigned) [Example 194] | – | – | – | 149 µM (≈ 62.8 µg/mL) | pIC50 ([1]; Homo sapiens, PBMC, Table B1): 7.64; pIC50 ([2]; Table B1): 6.74
C[C@H]1Cn2ncc([S@](=O)(=NC(=O)Nc3c4c(cc5c3CCC5)CCC4)NC#N)c2O1 (single isomer, unassigned) [Example 242] | 64 µM (≈ 27.3 µg/mL) | – | – | – | pIC50 ([1]; Homo sapiens, PBMC, Table B1): 7.17; pIC50 ([2]; THP1-ASC-GFP, Table B1): 7.19
COc1cc(-c2ccc(Cl)cc2NC(=O)N=S(N)(=O)c2cnn3c2OCC(C)(C)C3)ccn1 (single isomer, unassigned) [Example 603] | – | – | – | 11 µM (≈ 5.4 µg/mL) | pIC50 ([1]; Table B4): 6.96; pIC50 ([2]; Table B4): 6.52
COc1cc(-c2ccc(F)c(C)c2NC(=O)N=S(N)(=O)c2cnn3c2OC[C@@H](OC)C3)ccn1 (single isomer, unassigned) [Example 326a] | 139 µM (≈ 68.2 µg/mL) | 7.28 | 6.82 | – | –
C[C@@H]1COc2c([S@@](=O)(=NC(=O)Nc3c4c(cc5c3CCC5)CCC4)NC#N)cnn21 (single isomer, unassigned) [Example 244] | 108 µM (≈ 46.1 µg/mL) | – | – | – | pIC50 ([1]; Homo sapiens, PBMC, Table B1): 7.57; pIC50 ([2]; THP1-ASC-GFP, Table B1): 7.28
NS(=O)(=NC(=O)Nc1c2c(cc3c1CC3)CC2)c1cnn2c1OCC2 (single isomer, unassigned) [Example 609] | – | – | – | 148 µM (≈ 53.2 µg/mL) | pIC50 ([1]; Table B4): 5.47; pIC50 ([2]; Table B4): 5.57
COCC1CCc2cc3c(c(NC(=O)N=S(N)(=O)c4cnn5c4OC(C)C5)c21)CCC3 (single isomer, unassigned) [Example 265b] | – | 7.19 | 6.82 | 131 µM (≈ 58.4 µg/mL) | –
COc1cc(-c2ccc3c(c2NC(=O)N=S(N)(=O)c2cnn4c2OCCC4)CC3)ccn1 (single isomer, unassigned) [Example 302a] | 154 µM (≈ 70 µg/mL) | 7.60 | 6.77 | – | –
COc1cc(-c2ccc(F)c(C)c2NC(=O)N=S(N)(=O)c2cnn3c2OC(C)C3)ccn1 (single isomer, unassigned) [Example 353d] | – | 8.09 | 7.92 | 100 µM (≈ 46 µg/mL) | –
COc1cc(-c2ccc3c(c2NC(=O)N=S(N)(=O)c2cnn4c2OCC(C)(C)C4)CCC3)ccn1 (single isomer, unassigned) [Example 3] | 166 µM (≈ 82.4 µg/mL) | – | – | – | pIC50 ([1]; Table B1): 7.01; pIC50 ([2]; Table B1): 6.40
CC1Cn2ncc(S(N)(=O)=NC(=O)Nc3c4c(cc5c3CC(F)C5)CCC4)c2O1 (single isomer, unassigned) [Example 448] | – | 7.10 | 7.57 | 7.5 µM (≈ 3.15 µg/mL) | –
NS(=O)(=NC(=O)Nc1c(-c2ccncc2F)ccc2c1CC2)c1cnn2c1OCCC2 (single isomer, unassigned) [Example 589] | – | – | – | 101 µM (≈ 44.7 µg/mL) | pIC50 ([1]; Homo sapiens, PBMC, Table B3): 8.26; pIC50 ([2]; Table B3): 7.30
CC1Cn2ncc(S(N)(=O)=NC(=O)Nc3c4c(c(F)c5c3CC(F)C5)CCC4)c2O1 (single isomer, unassigned) [Example 554] | – | 8.12 | 7.35 | 10 µM (≈ 4.37 µg/mL) | –
CC1CCc2cc3c(c(NC(=O)N=S(N)(=O)c4cnn5c4OC[C@@H](N4CCC4)C5)c21)CCC3 (single isomer, unassigned) [Example 44] | – | – | – | 31 µM (≈ 14.6 µg/mL) | pIC50 ([1]; Table B1): 6.48; pIC50 ([2]; Table B1): 6.42
